The text below walks through data of US11332463B2, “Spiropiperidine allosteric modulators of nicotinic acetylcholine receptors” (Merck Sharp & Dohme Corp., priority 2018, dated 2022).

Where two headings read alike, the source gives them in different places.

The test addresses T1, human α7 nicotinic acetylcholine receptor (HEK cell line stably expressing human RIC-3 and human α7) (Homo sapiens, UniProt P36544).
T1 construct: host or cells: HEK cell line (PrecisION hnAChR α7/RIC-3)
The experiment in a line: Automated patch-clamp electrophysiology functional assay (Assay A), IonFlux HT, whole-cell population patch. The class given is cell-based. The protocol:
The α7 nAChR positive allosteric modulator (PAM) activity of the present compounds may be tested using assays known in the art. […] The assay was performed using the IonFlux HT in a whole-cell, population patch configuration. See Golden et al. Assay Drug Dev. Technol. […] The compounds were assessed for their ability to modulate the function of the human 7 nAChR stably expressed in a HEK cell line both in the presence, and in the absence of the natural 7 agonist acetylcholine. By performing a series of such measurements at different concentrations, the effective concentration of the 7 nAChR PAMs (EC50) was determined. See Spencer et al. Assay Drug Dev. Technol.
Direct activation of α7 (agonism), and potentiation of acetylcholine-evoked 7 currents was determined as follows:
Automated patch-clamp electrophysiology was performed using the IonFlux HT (Fluxion Biosciences Inc., San Francisco, Calif.) in the whole-cell, population patch configuration. Test compounds were assessed for their ability to modulate the function of the α7 nicotinic acetylcholine receptor both in the presence, and in the absence of the natural α7 agonist acetylcholine. […] Immediately prior to assay, cells were detached by first aspirating growth media, rinsing with Dulbecco's phosphate buffered saline, and then adding 10 mL of Accutase (Innovative Cell Technologies, San Diego, Calif.) to the flask and then incubating at 37° C. for 5 minutes. Detached cells were then recovered by the addition of 40 mL of CHO-serum-free media supplemented with 25 mM HEPES, and rocked gently in a 50 mL conical tube for 20 minutes prior to patch-clamp assay. After recovery, cells were pelleted by centrifugation at 1,000 RPM for 1 minute in a compact bench top centrifuge; recovery media was aspirated and cells were resuspended in external recording solution (150 mM NaCl, 5 mM KCl, 2 mM CaCl2), 1 mM MgCl2, 10 mM HEPES, 12 mM dextrose) to a density of 5.0×10^6 cells/mL. The cell suspension was added to the cell inlet wells on an IonFlux HT population patch plate which had previously been rinsed and primed with deionized H2O. Test compounds were serially diluted in DMSO and then resuspended to the final test concentration in external recording solution, with, or without 40 μM acetylcholine added to the external recording solution; test compounds were then transferred to the IonFlux HT population patch plate. Internal recording solution (110 mM TrisPO4, 28 mM TrisBase, 0.1 mM CaCl2, 2 mM MgCl2, 11 mM EGTA, 4 mM MgATP) was added to the internal recording solution inlet wells on the IonFlux HT patch plate previously loaded with cells and test compounds, and the plate loaded into the IonFlux HT instrument. A protocol was executed on the IonFlux HT to trap the cells, break into the cells, and establish the whole-cell recording configuration; cells were voltage-clamped at a holding potential of −60 mV for the duration of the experiment, all experiments were conducted at room temperature, and the IonFlux HT injection pressure was 8 psi for solution applications. Upon establishing the whole-cell configuration, external recording solution was perfused into the recording chambers for 120 seconds and then 40 μM acetylcholine was applied for 1 second and immediately washed off with external recording solution for 60 seconds. The 40 μM acetylcholine-evoked α7 current served as the current response to which subsequent test compound effects, in the presence, or in the absence of 40 μM acetylcholine would be quantified relative to. Next, test compounds were evaluated at multiple concentrations for their ability to induce, or modulate 7 current responses; three concentrations of test compound were evaluated in ascending dose fashion per recording.
On the technique in general: Patch clamp records ionic current or voltage across a cell membrane.

[1] abbreviates: HEK cells expressing human α7/RIC-3, test compound with or without 40 μM acetylcholine, holding potential −60 mV, room temperature, read-out: α7 nAChR Potency.
[2] abbreviates: automated patch-clamp electrophysiology functional assay (Assay A), read-out: α7 nAChR EC50.

T1 sequence (P36544 23-502): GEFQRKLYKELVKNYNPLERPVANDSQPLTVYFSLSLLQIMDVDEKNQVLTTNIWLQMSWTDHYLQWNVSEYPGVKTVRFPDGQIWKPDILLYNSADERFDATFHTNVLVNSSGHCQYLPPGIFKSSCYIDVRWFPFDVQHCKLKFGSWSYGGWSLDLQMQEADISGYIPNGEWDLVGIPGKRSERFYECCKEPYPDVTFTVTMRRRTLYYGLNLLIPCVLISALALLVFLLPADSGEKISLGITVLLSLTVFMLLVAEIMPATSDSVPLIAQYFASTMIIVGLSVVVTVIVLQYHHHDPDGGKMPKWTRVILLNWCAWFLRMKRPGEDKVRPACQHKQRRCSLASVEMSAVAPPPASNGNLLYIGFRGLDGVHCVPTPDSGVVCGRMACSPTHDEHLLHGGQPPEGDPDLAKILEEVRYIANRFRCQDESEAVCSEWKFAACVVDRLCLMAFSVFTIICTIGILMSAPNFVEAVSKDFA

As to `N#CC1(c2ccccc2-c2nc([C@@H]3CC34CCN(S(N)(=O)=O)CC4)no2)CC1` [Example E75], the EC50 runs as follows: under setting [1], 5000 to 50000 nM; under setting [2], 6300 nM.

For `Cc1ccccc1-c1noc([C@H]2C(F)(F)C23CCN(S(N)(=O)=O)CC3)n1` [Example H5], under setting [1], the EC50 was 500 to 5000 nM.

`Cc1cnc2cc(-c3nc([C@@H]4C(F)(F)C45CCN(S(N)(=O)=O)CC5)no3)ccn12` [Example E36]: the EC50 is, setting by setting: under setting [1], 500 to 5000 nM; under setting [2], 1100 nM.

As to `CC(C)C1CC(c2nc([C@@H]3CC34CCN(S(N)(=O)=O)CC4)no2)C1` (mixture of isomers) [Example E3], the EC50 is, setting by setting: under setting [1], 500 to 5000 nM; under setting [2], 1900 nM.

For the compound `COc1ccc(Cl)cc1-c1noc(C2CC23CCN(S(C)(=O)=O)CC3)n1` (racemic) [Example B14], the EC50 is, setting by setting: under setting [1], 500 to 5000 nM; under setting [2], 1100 nM.

Take `COc1ccc(Cl)cc1-c1nc(C2CC23CCN(S(C)(=O)=O)CC3)no1` (racemic) [Example J1]: the EC50 runs as follows: under setting [1], 500 to 5000 nM; under setting [2], 760 nM.

As to `NS(=O)(=O)N1CCC2(CC1)[C@H](c1nc(-c3ccnn3CC(F)(F)F)no1)C2(F)F` [Example 12, (2R)-1,1-Difluoro-2-{3-[1-(2,2,2-trifluoroethyl)-1H-pyrazol-5-yl]-1,2,4-oxadiazol-5-yl}-6-azaspiro[2.5]octane-6-sulfonamide], the EC50 under setting [1] was in the range of 100 to 500 nM and the EC50 under setting [2] was 220 nM.

Take `NS(=O)(=O)N1CCC2(CC1)[C@H](c1noc(-c3cc(C(F)(F)F)nn3C3CC3)n1)C2(F)F` [Example 29, (2R)-2-{5-[1-Cyclopropyl-3-(trifluoromethyl)-1H-pyrazol-5-yl]-1,2,4-oxadiazol-3-yl}-1,1-difluoro-6-azaspiro[2.5]octane-6-sulfonamide]: the EC50 is, setting by setting: under setting [1], 100 to 500 nM; under setting [2], 170 nM.

As for `NS(=O)(=O)N1CCC2(CC1)[C@@H](c1nc(-c3cccc(F)c3)no1)C2(F)F` [Example H4], the EC50 under setting [1] lay in the range of 500 to 5000 nM and the EC50 under setting [2] turned out to be 1200 nM.

Consider `NS(=O)(=O)N1CCC2(CC1)C[C@H]2c1noc(-c2ccccc2C(F)(F)F)n1` [Example D17], for which the EC50 runs as follows: under setting [1], 500 to 5000 nM; under setting [2], 630 nM.

With `NS(=O)(=O)N1CCC2(CC1)C[C@H]2c1noc(-c2ccc(F)cc2OC(F)F)n1` [Example D24], the EC50 is, setting by setting: under setting [1], 100 to 500 nM; under setting [2], 240 nM.

As to `Cc1ccc(C)c(-c2nc(C3C(F)(F)C34CCN(S(N)(=O)=O)C(C)C4)no2)c1` (mixture of isomers) [Example K2], the EC50 reads like this: under setting [1], 100 to 500 nM; under setting [2], 430 nM.

With `Cc1ncc(C(F)(F)F)cc1-c1nc([C@@H]2CC23CCN(S(N)(=O)=O)CC3)no1` [Example E61], the EC50 by setting is: under setting [1], 500 to 5000 nM; under setting [2], 1500 nM.

Regarding `Cc1onc(C2CC2)c1-c1cnc([C@@H]2CC23CCN(S(N)(=O)=O)CC3)o1` [Example 28, (1R)-1-[5-(3-Cyclopropyl-5-methylisoxazol-4-yl)-1,3-oxazol-2-yl]-6-azaspiro[2.5]octane-6-sulfonamide], the EC50 runs as follows: under setting [1], 100 to 500 nM; under setting [2], 120 nM.

Consider `Cc1cc(C)c(-c2nc(C3CC34CCN(S(N)(=O)=O)CC4)no2)cc1C` (stereo not drawn) [Example D25], for which the EC50 is 100 to 500 nM under setting [1] and 130 nM under setting [2].

As to `Cc1ccc(C)c(-c2noc(C3CC34CCN(S(N)(=O)=O)CC4(F)F)n2)c1` (single isomer, unassigned) [Example I4], the EC50 reads like this: under setting [1], 500 to 5000 nM; under setting [2], 1500 nM.

With `NS(=O)(=O)N1CCC2(CC1)[C@H](c1noc(-c3ccnn3C3CC3)n1)C2(F)F` [Example E34], the EC50 was 100 to 500 nM under setting [1] and 130 nM under setting [2].

For `Cc1ccc(C(F)(F)F)cc1-c1nc([C@@H]2CC23CCN(S(N)(=O)=O)CC3)no1` [Example 1, (1R)-1-{5-[2-Methyl-5-(trifluoromethyl)phenyl]-1,2,4-oxadiazol-3-yl}-6-azaspiro[2.5]octane-6-sulfonamide], the EC50 reads like this: under setting [1], less than 100 nM; under setting [2], 98 nM.

Turning to `NS(=O)(=O)N1CCC2(CC1)C[C@H]2c1noc(-c2cc(Cl)ccc2OC(F)(F)F)n1` [Example D22], the EC50 runs as follows: under setting [1], 100 to 500 nM; under setting [2], 410 nM.

With `NS(=O)(=O)N1CCC2(CC1)[C@H](c1noc(-c3cc(C(F)(F)F)n(C4CC4)n3)n1)C2(F)F` [Example E46], the EC50 is 500 to 5000 nM under setting [1] and 510 nM under setting [2].

Turning to `NS(=O)(=O)N1CCC2(CC1)C[C@H]2c1noc(-c2cccc(C(F)(F)F)n2)n1` [Example E17], the EC50 is, setting by setting: under setting [1], 500 to 5000 nM; under setting [2], 1400 nM.

As for `NS(=O)(=O)N1CCC2(CC1)[C@H](c1cc(-c3ccc(F)cc3C(F)(F)F)on1)C2(F)F` [Example G9], the EC50 runs as follows: under setting [1], less than 100 nM; under setting [2], 78 nM.

`NS(=O)(=O)N1CCC2(CC1)C[C@H]2c1csc(-c2cccc(OC(F)(F)F)c2)n1` [Example 7, (1R)-1-{2-[3-(Trifluoromethoxy)phenyl]-1,3-thiazol-4-yl}-6-azaspiro[2.5]octane-6-sulfonamide]: the EC50 reads like this: under setting [1], 500 to 5000 nM; under setting [2], 1100 nM.

On to `Cn1nc2c(c1-c1nc([C@@H]3C(F)(F)C34CCN(S(N)(=O)=O)CC4)no1)CCC2` [Example 20, (2R)-1,1-Difluoro-2-[5-(2-methyl-2,4,5,6-tetrahydrocyclopenta[c]pyrazol-3-yl)-1,2,4-oxadiazol-3-yl]-6-azaspiro[2.5]octane-6-sulfonamide], for which the EC50 is, setting by setting: under setting [1], less than 100 nM; under setting [2], 98 nM.

`Cc1onc(C2CC2)c1-c1noc(C2C(F)(F)C23CCN(S(N)(=O)=O)CC3)n1` (stereo not drawn) [Example C5]: the EC50 runs as follows: under setting [1], less than 100 nM; under setting [2], 11 nM.

Take `Cc1onc(C2CC2)c1-c1nnc([C@@H]2CC23CCN(S(N)(=O)=O)CC3)o1` [Example F11]: the EC50 is 410 nM (α7 nAChR EC50 (nM), automated patch-clamp electrophysiology functional assay (Assay A)) and 100 to 500 nM (α7 nAChR Potency, HEK cells expressing human α7/RIC-3, test compound with or without 40 μM acetylcholine, holding potential −60 mV, room temperature).

Consider `NS(=O)(=O)N1CCC2(CC1)C[C@H]2c1noc(-c2ccc(Cl)cc2C(F)(F)F)n1` [Example D7], for which the EC50 under setting [1] is 500 to 5000 nM and the EC50 under setting [2] is 590 nM.

Take `NS(=O)(=O)N1CCC2(CC1)[C@H](c1cc(-c3ccc(F)cc3C(F)(F)F)ns1)C2(F)F` [Example G11]: the EC50 is 100 to 500 nM under setting [1] and 120 nM under setting [2].

Regarding `Cc1noc(C)c1-n1cc([C@@H]2CC23CCN(S(N)(=O)=O)CC3)cn1` [Example G3], under setting [1], the EC50 was 500 to 5000 nM.

On to `Cn1nc(C(F)(F)F)cc1-c1nc([C@@H]2C(F)(F)C23CCN(S(N)(=O)=O)CC3)no1` [Example E45], for which the EC50 under setting [1] was in the range of 500 to 5000 nM and the EC50 under setting [2] worked out at 550 nM.

On to `COc1ccc(Cl)cc1-c1noc(C2CC23CCN(C(=O)NC(C)(C)C)CC3)n1` (racemic) [Example B9], for which the EC50 runs as follows: under setting [1], 5000 to 50000 nM; under setting [2], 5400 nM.

For `Cc1cnn(C)c1-c1nc([C@@H]2CC23CCN(S(N)(=O)=O)CC3)no1` [Example E52], the EC50 is, setting by setting: under setting [1], 500 to 5000 nM; under setting [2], 1700 nM.

For `NS(=O)(=O)N1CCC2(CC1)C(c1nsc(N3CCCCC3)n1)C2(F)F` (racemic) [Example J2], the EC50 by setting is: under setting [1], 500 to 5000 nM; under setting [2], 1000 nM.

Consider `Cc1ccccc1-c1nc([C@@H]2CC23CCN(S(N)(=O)=O)CC3)no1` [Example 33, (1R)-1-[5-(2-Methylphenyl)-1,2,4-oxadiazol-3-yl]-6-azaspiro[2.5]octane-6-sulfonamide], for which the EC50 is 100 to 500 nM under setting [1] and 390 nM under setting [2].
